{
  "source": "paper PMC9494680",
  "about": "(ACS Omega, 2022)",
  "key": {"SET-2 cells": {"tested_on": "SET-2 cells", "conditions": "human megakaryoblastic cell line; cited from earlier work"}, "JAK3": {"biological_target": "JAK3 (Homo sapiens, UniProt P52333)", "sequence (P52333 781-1124 limits assumed)": "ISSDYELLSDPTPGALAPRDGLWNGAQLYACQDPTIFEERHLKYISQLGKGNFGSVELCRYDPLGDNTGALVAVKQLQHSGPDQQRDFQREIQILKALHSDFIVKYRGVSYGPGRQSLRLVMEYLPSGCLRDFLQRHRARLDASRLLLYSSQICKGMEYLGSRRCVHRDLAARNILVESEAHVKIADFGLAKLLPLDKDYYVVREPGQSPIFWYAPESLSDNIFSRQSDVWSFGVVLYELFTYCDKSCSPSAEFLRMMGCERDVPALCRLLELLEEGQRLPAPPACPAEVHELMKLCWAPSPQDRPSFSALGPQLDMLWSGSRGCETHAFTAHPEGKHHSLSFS", "conditions": "read-out: IC50 for JAK3 kinase inhibition; cited from earlier work"}, "HEL cells": {"tested_on": "HEL cells", "experiment": "Cytotoxicity, PrestoBlue assay, HEL cells", "type": "cell-based", "conditions": "Homo sapiens, 72 h, read-out: IC50 toward HEL cells"}, "JAK1": {"tested_on": "JAK1", "conditions": "read-out: IC50 for JAK1; cited from earlier work"}, "TF1 cells [1]": {"tested_on": "TF1 cells", "experiment": "Cytotoxicity, PrestoBlue assay, TF1 cells", "type": "cell-based", "conditions": "Homo sapiens, TF-1, 72 h, read-out: IC50 toward TF1 cells"}, "TF1 cells [2]": {"tested_on": "TF1 cells", "experiment": "Annexin V and dead cell flow cytometric apoptosis analysis", "type": "cell-based, human", "conditions": "TF1, IC25, IC50, IC75, 24 h"}},
  "data": [
    {"smiles": "Fc1cc(-c2cccc3ncc(-c4cnn(C5CCNCC5)c4)nc23)cc(F)c1CN1CCOCC1", "note": "[NVP-BSK805]", "values": [
      {"measurement": "Apoptosis induction in SET-2 cells", "setting": "SET-2 cells", "result": "induced apoptosis in SET-2 cells"}
    ]},
    {"smiles": "COc1cc2ncnc(Nc3ccc(O)cc3)c2cc1OC", "note": "[WHI-P131]", "values": [
      {"measurement": "IC50", "setting": "JAK3", "result": 9, "unit": "µM"}
    ]},
    {"smiles": "N#CC[C@H](C1CCCC1)n1cc(-c2ncnc3[nH]ccc23)cn1", "note": "[ruxolitinib]", "values": [
      {"measurement": "IC50", "setting": "HEL cells", "result": "19.3 ± 0.64", "unit": "µM"},
      {"measurement": "IC50", "setting": "JAK1", "result": "[…]"},
      {"measurement": "IC50", "setting": "TF1 cells [1]", "result": "10.7 ± 0.88", "unit": "µM"},
      {"measurement": "Percentage of cell apoptosis vs dose, annexin V", "setting": "TF1 cells [2]", "result": "increased in a dose-dependent manner"}
    ]},
    {"smiles": "C[C@@H]1CCN(C(=O)CC#N)C[C@@H]1N(C)c1ncnc2[nH]ccc12", "note": "[tofacitinib]", "values": [
      {"measurement": "Percentage of cell apoptosis vs dose, annexin V", "setting": "TF1 cells [2]", "result": "increased in a dose-dependent manner"}
    ]}
  ]
}
